Measured values reported in patent US20220226293A1, “TREATMENTS OF ANGIOEDEMA” (KALVISTA PHARMACEUTICALS LIMITED, priority 2019, published 2022).
Blank lines part the entries; values can stand above or below the molecule they belong to.

Columns and labels:
[1] = background, literature and labels; cited from earlier work
[2] = tested on: HK cleavage in undiluted plasma; test: DXS-activated cleavage of HK in undiluted plasma (immunoblot); assay type: biochemical, human; settings: 300 nM PKa inhibitor, 20 min incubation with DXS
Protocol: DXS-activated cleavage of HK in undiluted plasma was performed in the absence or presence of 300 nM PKa inhibitor and quantified by SDS-PAGE gel electrophoresis, using 7.5% Criterion TGX Precast gels (Biorad). Transfer was made onto Immunobilon-FL PVDF membrane. Image analysis was done using the LICOR imaging system. Mouse monoclonal anti-HK antibody (MAB15692, R&D systems) was used for traditional immunoblotting. Data presented as % of HK remaining after 20 min incubation with DXS compared to HK levels in unactivated plasma (Table 1).

[3] = biological target: T1, plasma kallikrein catalytic activity (Homo sapiens, UniProt P03952); test: Phase 1 SAD / food effect: ex vivo PKa catalytic activity in DXS-stimulated undiluted plasma
T1 construct: from tissue; host or cells: undiluted plasma of healthy male study participants after oral dosing, stimulated ex vivo with dextran sulfate
T1 sequence (P03952 391-638 limits assumed): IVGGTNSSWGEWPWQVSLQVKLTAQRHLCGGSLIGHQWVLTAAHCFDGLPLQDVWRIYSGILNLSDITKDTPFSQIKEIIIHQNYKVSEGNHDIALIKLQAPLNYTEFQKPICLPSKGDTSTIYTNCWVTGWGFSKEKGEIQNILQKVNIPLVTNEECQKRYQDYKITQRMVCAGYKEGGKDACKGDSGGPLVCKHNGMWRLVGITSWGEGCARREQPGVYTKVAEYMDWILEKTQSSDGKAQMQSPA
T1 sequence (P03952 20-390 partner limits assumed): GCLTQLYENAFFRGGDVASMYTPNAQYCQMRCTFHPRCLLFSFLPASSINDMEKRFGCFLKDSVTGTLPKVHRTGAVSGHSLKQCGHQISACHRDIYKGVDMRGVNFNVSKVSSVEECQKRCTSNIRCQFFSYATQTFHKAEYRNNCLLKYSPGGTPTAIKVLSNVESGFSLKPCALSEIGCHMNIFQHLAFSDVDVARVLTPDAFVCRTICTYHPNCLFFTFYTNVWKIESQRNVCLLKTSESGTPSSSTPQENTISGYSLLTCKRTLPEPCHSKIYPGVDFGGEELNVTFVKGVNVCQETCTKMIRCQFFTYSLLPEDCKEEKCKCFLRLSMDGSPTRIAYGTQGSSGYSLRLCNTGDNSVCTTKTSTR
Protocol: (§1) This study was a randomized, double-blind, placebo-controlled single ascending dose (SAD) and crossover studies for food effect and capsule/tablet formulations.
PD measurements were determined in dextran sulfate (DXS) stimulated undiluted plasma using a fluorogenic enzyme assay and capillary based HK cleavage immunoassay.
The time until appearance of detectable amidolytic enzyme activity in DXS-stimulated plasma (lag time) was calculated from the catalytic activity assay. The detection sensitivity of the rate of catalytic activity in plasma based on using a Spark (Tecan) fluorimeter is a fluorescence increase to reach 1ΔF unit/sec.

[4] = tested on: HK cleavage; test: Phase 1 SAD: ex vivo DXS-stimulated cleavage of HK, Wes capillary immunoassay; set-up: species or system human; settings: 600 mg orally in capsules, up to 12 hrs post-dose
Protocol: DXS-stimulated cleavage of HK, in undiluted plasma was quantified by capillary-based immunoassay on the Wes System (ProteinSimple) using monoclonal anti-HK antibody and chemiluminescence-based detection. Plasma kallikrein mediated HK cleavage in undiluted citrated human plasma was induced by contact system activation with DXS (6.25 μg/ml) at 4° C. in selected samples from the SAD phase.

[5] = tested on: plasma prekallikrein; test: Phase 1 SAD: ex vivo DXS-stimulated cleavage of plasma prekallikrein, Wes immunoassay; set-up: species or system human; settings: 600 mg orally in capsules, up to 12 hrs post-dose
Source text: (§2) DXS-stimulated cleavage of plasma prekallikrein and Factor XII (FXII) were quantified by capillary-based immunoassay on the Wes System (ProteinSimple) analogously.

[6] = tested on: Factor XII (FXII); test: Phase 1 SAD: ex vivo DXS-stimulated cleavage of Factor XII / generation of FXIIa, Wes immunoassay; set-up: species or system human; settings: 600 mg orally in capsules, up to 12 hrs post-dose
Source text: as §2

[7] = Phase 1 SAD: plasma pharmacokinetics (LC MS/MS); assay type: in vivo, human
Protocol: Samples for pharmacokinetic (PK) and PD assessment were taken at repeated intervals over 48 hours.
Plasma samples used for PK assessment were analysed using a validated liquid chromatography tandem mass spectrometry (LC MS/MS) method.

[8] = Phase 1 SAD and food effect study: safety and tolerability; assay type: in vivo, human; settings: phase I trial, healthy males
Source text: as §1

[9] = tested on: HK cleavage in undiluted citrated human plasma; test: Protection of HK from PKa-mediated cleavage in DXS-stimulated HAE and control plasma (WES immunoassay); assay type: biochemical; settings: HAE and healthy control plasma stimulated with dextran sulfate
Protocol: High molecular weight kininogen (HK) cleavage in undiluted citrated human plasma was induced by contact system activation with dextran sulfate (DXS, Sigma #31395-10G; 6.25 μg/ml) on wet ice. […] HAE plasma was obtained from HAE subjects (n=6) and C1-inhibitor deficiency was confirmed by western blotting. Protection of HK from PKa mediated cleavage in DXS-stimulated whole undiluted plasma was then determined by two methods; traditional western blotting and a semi-automated capillary-based immunoassay.
Capillary-based immunoassay on the WES System (ProteinSimple):
Preparation of samples: Combine one part 5× fluorescent master mix with four parts of the 1:200 plasma sample. Vortex to mix. Heat the samples+fluorescent master mix and the biotinylated ladder at 95° C. for 5 minutes, vortex, and load onto the WES plate. Monoclonal anti-human HK antibody was used for this chemiluminescence-based detection method using the Wes System (ProteinSimple).
Analysis: Collect the peak area measurement obtained in the Compass software (cbz file) for the full-length HK molecular weight of the respective time-point sample with DXS-induced activation. The peak area is defined as the area calculated for the spectral peak profile for HK. To measure the plasma kallikrein inhibition by the compound, the percent full-length HK detected was calculated.

[10] = Phase 1 multiple dose study: safety, tolerability, ECG; assay type: in vivo, human; settings: healthy adults
Protocol: This is a phase 1, double-blind, placebo-controlled, multiple-dose, multiple-cohort study to evaluate safety and tolerability of the compound as well as of the ECG effects of the compound formulated as 100 mg Film Coated Tablets in healthy adult male and female subjects.
During the study, oral doses of 600 mg of the compound as Film Coated Tablets (six 100 mg tablets) or 6 matching placebo tablets will be administered once every 8 hours (Cohort 1) every 4 hours (Cohort 2), or every 2 hours (Cohort 3 and 4) to healthy adult male and female subjects up to a total dose of 1800 mg. In Cohorts 1, 2 and 3, 6 subjects will receive the compound as 100 mg Film Coated Tablets and 2 subjects will receive the placebo for a total of 8 subjects per cohort. In Cohort 4, 12 subjects will receive the compound as 100 mg Film Coated Tablets and 6 subjects will receive the placebo for a total of 18 subjects.
A Holter monitor will be attached to each subject in order to continuously record ECGs. The monitor will be attached 1 hour before the first dose and will remain attached until after the final blood sample collection. The electrodes for the Holter monitor will be checked by a member of the clinic staff at appropriate intervals to ensure they are attached.

[11] = biological target: T2, Human plasma kallikrein (Homo sapiens, UniProt P03952); test: Plasma kallikrein inhibitory activity in vitro, purified enzyme, fluorogenic substrate; assay type: biochemical; settings: 25° C., substrate H-DPro-Phe-Arg-AFC
T2 construct: purchased Protogen
T2 sequence (P03952 391-638 limits assumed): as the sequence (P03952 391-638 limits assumed) above
T2 sequence (P03952 20-390 partner limits assumed): as the sequence (P03952 20-390 partner limits assumed) above
Protocol: Human plasma kallikrein (Protogen) was incubated at 25° C. with the fluorogenic substrate H-DPro-Phe-Arg-AFC and various concentrations of the test compound. Residual enzyme activity (initial rate of reaction) was determined by measuring the change in […] at 410 nm and the IC50 value for the test compound was determined.

[12] = biological target: purified PKa (Homo sapiens, UniProt P03952); test: Rate of formation of the enzyme-inhibitor complex (Kon); assay type: biochemical
Chain of purified PKa (P03952 391-638 limits assumed): as the sequence (P03952 391-638 limits assumed) above
Chain of purified PKa (P03952 20-390 partner limits assumed): as the sequence (P03952 20-390 partner limits assumed) above
Protocol: The rate of formation of the enzyme-inhibitor complex (Kon) was determined using purified PKa rapidly mixed with a solution containing fluorogenic substrate and a concentration range of inhibitor. The time-dependent establishment of inhibition was then used to calculate the rate of formation of the enzyme-inhibitor complex for each concentration of inhibitor. The Kon was calculated by plotting the rate of inhibition versus the inhibitor concentration. Data in Table 1 are presented in μM^−1 sec^−1.

[13] = biological target: PKa in DXS-activated plasma (Homo sapiens, UniProt P03952); test: Catalytic activity of PKa in dextran sulfate-activated plasma; assay type: biochemical; settings: read-out: IC50 plasma enzyme
Chain of PKa in DXS-activated plasma (P03952 391-638 limits assumed): as the sequence (P03952 391-638 limits assumed) above
Chain of PKa in DXS-activated plasma (P03952 20-390 partner limits assumed): as the sequence (P03952 20-390 partner limits assumed) above
Protocol: Catalytic activity of PKa in dextran sulfate-activated (DXS, Sigma; 10 μg/ml) plasma (1:4 diluted or undiluted, VisuCon-F control plasma, Affinity Biologicals Inc) was determined by the time-dependent hydrolysis of fluorogenic substrate.

[14] = biological target: T3, plasma kallikrein-kinin pathway enzyme activity in pre-activated plasma (Homo sapiens, UniProt P03952); test: Inhibition of enzyme activity of pre-activated undiluted plasma (compound added after DXS); assay type: biochemical; settings: added 3.5 minutes post DXS; compound 300, 1000, 3000 nM; C1-INH 3000 nM
T3 construct: from tissue
T3 sequence (P03952 391-638 limits assumed): as the sequence (P03952 391-638 limits assumed) above
T3 sequence (P03952 20-390 partner limits assumed): as the sequence (P03952 20-390 partner limits assumed) above
Protocol: The ability of the compound to inhibit the enzyme activity of pre-activated plasma was assessed by addition of the compound after DXS stimulation. Aliquots of plasma (20 μL) were mixed with a 2.5 μL solution containing […] fluorogenic substrate (H-DPro-Phe-Arg-AFC) and a 2.5 μL solution of dextran sulphate (DXS; 100 μg/mL) which acted as an activator of the plasma kallikrein-kinin pathway. Enzyme activity was immediately measured by monitoring the accumulation of fluorescence liberated from the substrate by substrate cleavage over 16 minutes. At 3.5 minutes post DXS addition 5 μl of inhibitors or water control are were added into each well. The compound was tested at concentrations of 300, 1000 and 3000 nM. C1-INH at a concentration of 3000 nM and vehicle controls were also included.

[15] = 3 x 600 mg every 8, 4 or 2 hours

Molecule: Ecallantide
reported adverse reactions / risks [1]: risk of anaphylactic reactions

Molecule: N#Cc1cccc([C@@H](NCC2CC2)c2ccc(F)c(NC(=O)c3cc(C(F)(F)F)nn3-c3cccc(CN)c3)c2)c1 [Berotralstat]
reported adverse reactions / risks [1]: higher doses were associated with more gastrointestinal adverse effects

inhibition at 600 mg ([3]; 600 mg tablet, by 30 minutes, fed and fasted state): > 90%
food effect on pharmacodynamic (PD) profile ([3]; 600 mg tablet, fed and fasted state): no significant food-effect
inhibition at 160 mg ([3]; po, cohort 6 (160 mg oral), between 45 min and 2 hr post-dose): > 90%
inhibition at 300 mg ([3]; po, cohort 7 (300 mg oral), between 20 min and 4 hr post-dose): > 90%
plasma concentration ([7]; following a dosage amount of at least about 60 mg): at least 500 ng/mL
plasma exposure ([7]; oral capsule, fasted, 5 mg to 600 mg): rapid and dose-dependent plasma exposure
Molecule: COCc1nn(Cc2ccc(Cn3ccccc3=O)cc2)cc1C(=O)NCc1nccc(OC)c1F [Compound of Formula A, N-[(3-fluoro-4-methoxypyridin-2-yl)methyl]-3-(methoxymethyl)-1-({4-[(2-oxopyridin-1-yl)methyl]phenyl}methyl)pyrazole-4-carboxamide]
HK protection (% of HK remaining vs unactivated plasma) [2]: 85%
lag time (time until appearance of catalytic activity during contact system activation) ([3]; 600 mg dose, tablet formulation): increases the time until appearance of catalytic activity
detectable catalytic activity after prolonged DXS activation ([3]; 600 mg tablet, early time points post-dose): did not display detectable catalytic activity
effect on HK cleavage [4]: reduces HK cleavage
effect on PPK cleavage [5]: reduces PPK cleavage
effect on generation of FXIIa [6]: reduces the generation of FXIIa
serious adverse events [8]: No serious adverse events were reported
tolerability signals [8]: no tolerability signals
protection against HK cleavage [9]: dose dependent protection against HK cleavage
serious adverse events [10, 15]: No serious adverse events were reported
severity of reported adverse events [10, 15]: mild
effects on the studied ECG parameters ([10]; 3 x 600 mg): No clinically relevant effects

IC50 [11]: 50 nM
Kon [12]: 40000 M⁻¹ s⁻¹
IC50 [13]: 1700 nM
inhibition of enzyme activity after activation of plasma [14]: slower action
Molecule: C1-INH: C1 inhibitor (C1-INH, Sigma Cat #E0518), comparator [Compound C1-INH]

B1: lanadelumab: recombinant fully human IgG1 kappa light chain monoclonal antibody, active substance of Takhzyro® (antibody, chains of the INN, looked up, V domains shown)
VH: EVQLLESGGGLVQPGGSLRLSCAASGFTFSHYIMMWVRQAPGKGLEWVSGIYSSGGITVYADSVKGRFTISRDNSKNTLYLQMNSLRAEDTAVYYCAYRRIGVPRRDEFDIWGQGTMVTVSS
VL: DIQMTQSPSTLSASVGDRVTITCRASQSISSWLAWYQQKPGKAPKLLIYKASTLESGVPSRFSGSGSGTEFTLTISSLQPDDFATYYCQQYNTYWTFGQGTKVEIK
reported adverse reactions / risks [1]: hypersensitivity, injection site pain, injection site erythema, and injection site bruising
